Assays:
[1] = molecular target: T1, 5-hydroxytryptamine receptor 1A (Homo sapiens, UniProt P08908); assay: Displacement of [3H]8-OH-DPAT from 5HT1A receptor expressed in CHO cells; type: cell-based
T1 sequence (P08908 whole entry): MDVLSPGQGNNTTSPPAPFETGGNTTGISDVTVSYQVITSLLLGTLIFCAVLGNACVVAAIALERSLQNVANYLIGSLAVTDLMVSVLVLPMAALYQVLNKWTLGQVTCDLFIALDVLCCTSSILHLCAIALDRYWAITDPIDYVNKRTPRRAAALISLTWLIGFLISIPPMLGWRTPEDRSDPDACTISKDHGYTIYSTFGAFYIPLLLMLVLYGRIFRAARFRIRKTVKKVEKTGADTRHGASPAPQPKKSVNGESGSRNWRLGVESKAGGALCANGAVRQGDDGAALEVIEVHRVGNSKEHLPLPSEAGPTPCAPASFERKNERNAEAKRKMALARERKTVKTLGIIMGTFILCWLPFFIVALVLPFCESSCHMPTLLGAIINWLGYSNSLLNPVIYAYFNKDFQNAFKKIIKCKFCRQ

[2] = molecular target: Sodium-dependent serotonin transporter (Rattus norvegicus) (UniProt P31652); assay: Inhibition of [3H]paroxetine binding to rat cortical 5-HT reuptake at 100 nM
Sodium-dependent serotonin transporter (Rattus norvegicus), sequence (P31652 whole entry): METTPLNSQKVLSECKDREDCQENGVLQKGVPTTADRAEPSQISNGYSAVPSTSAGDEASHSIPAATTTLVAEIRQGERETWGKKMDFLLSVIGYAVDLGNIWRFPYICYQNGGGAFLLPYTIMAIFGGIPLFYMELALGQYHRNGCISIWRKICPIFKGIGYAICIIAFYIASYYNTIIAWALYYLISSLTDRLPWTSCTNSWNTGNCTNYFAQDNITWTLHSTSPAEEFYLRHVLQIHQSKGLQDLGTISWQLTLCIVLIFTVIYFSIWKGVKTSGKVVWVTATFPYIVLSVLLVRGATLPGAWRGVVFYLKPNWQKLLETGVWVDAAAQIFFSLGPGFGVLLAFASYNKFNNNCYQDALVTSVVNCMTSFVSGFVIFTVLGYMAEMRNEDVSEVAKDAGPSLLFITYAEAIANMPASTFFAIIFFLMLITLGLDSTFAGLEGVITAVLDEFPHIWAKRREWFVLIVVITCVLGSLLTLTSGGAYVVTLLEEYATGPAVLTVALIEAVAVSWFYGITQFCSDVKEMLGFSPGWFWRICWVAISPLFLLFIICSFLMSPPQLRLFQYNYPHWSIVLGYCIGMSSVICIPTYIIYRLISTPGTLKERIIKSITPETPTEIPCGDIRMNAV

[3] = molecular target: Sodium-dependent serotonin transporter (Rattus norvegicus, UniProt P31652); assay: Displacement of [3H]paroxetine from rat cortical 5-HT reuptake
Sodium-dependent serotonin transporter, sequence (P31652 whole entry): as above

[4] = molecular target: T2, 5-hydroxytryptamine receptor 1A (Homo sapiens) (UniProt P08908); assay: Agonist activity assessed by stimulation of [35S]GTPgammaS binding in CHO cells expressing 5HT1A receptor relative to 5HT; type: functional, cell-based
T2 sequence (whole entry): T1 sequence (P08908 whole entry)

[5] = molecular target: T3, Adrenergic receptor alpha-1 (Rattus norvegicus, UniProt P15823+P23944+P43140); assay: Displacement of [3H]prazosin from adrenergic alpha-1 receptor in rat cortical membrane; type: cell membranes
T3 sequence (P15823 whole entry): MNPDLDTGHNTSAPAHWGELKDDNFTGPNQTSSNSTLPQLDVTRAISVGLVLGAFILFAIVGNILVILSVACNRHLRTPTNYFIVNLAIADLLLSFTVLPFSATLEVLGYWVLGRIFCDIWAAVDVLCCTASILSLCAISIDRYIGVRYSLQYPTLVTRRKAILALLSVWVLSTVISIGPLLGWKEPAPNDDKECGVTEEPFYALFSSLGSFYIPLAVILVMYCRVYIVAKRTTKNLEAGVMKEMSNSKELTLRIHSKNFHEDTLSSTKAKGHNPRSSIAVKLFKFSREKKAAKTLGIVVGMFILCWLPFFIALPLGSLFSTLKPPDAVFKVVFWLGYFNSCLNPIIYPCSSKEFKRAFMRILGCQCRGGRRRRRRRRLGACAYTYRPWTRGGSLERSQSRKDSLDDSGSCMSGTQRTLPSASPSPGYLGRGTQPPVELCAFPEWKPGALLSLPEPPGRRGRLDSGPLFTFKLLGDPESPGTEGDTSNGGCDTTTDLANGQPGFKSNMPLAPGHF
T3 sequence (P23944 whole entry): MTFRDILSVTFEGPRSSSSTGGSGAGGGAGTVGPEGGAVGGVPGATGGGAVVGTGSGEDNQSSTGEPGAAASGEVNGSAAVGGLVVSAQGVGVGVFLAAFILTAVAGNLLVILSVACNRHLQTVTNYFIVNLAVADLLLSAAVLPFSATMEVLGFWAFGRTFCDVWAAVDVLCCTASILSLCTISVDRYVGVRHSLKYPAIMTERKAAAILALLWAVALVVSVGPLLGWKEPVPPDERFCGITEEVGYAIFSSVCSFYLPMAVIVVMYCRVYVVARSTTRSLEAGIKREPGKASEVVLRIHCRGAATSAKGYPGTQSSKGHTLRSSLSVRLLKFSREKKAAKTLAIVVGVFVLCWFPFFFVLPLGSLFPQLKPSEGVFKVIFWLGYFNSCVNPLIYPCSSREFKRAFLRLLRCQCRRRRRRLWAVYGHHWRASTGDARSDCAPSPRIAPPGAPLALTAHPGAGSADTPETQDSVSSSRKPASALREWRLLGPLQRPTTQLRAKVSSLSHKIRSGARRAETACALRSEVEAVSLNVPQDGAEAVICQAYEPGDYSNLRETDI
T3 sequence (P43140 whole entry): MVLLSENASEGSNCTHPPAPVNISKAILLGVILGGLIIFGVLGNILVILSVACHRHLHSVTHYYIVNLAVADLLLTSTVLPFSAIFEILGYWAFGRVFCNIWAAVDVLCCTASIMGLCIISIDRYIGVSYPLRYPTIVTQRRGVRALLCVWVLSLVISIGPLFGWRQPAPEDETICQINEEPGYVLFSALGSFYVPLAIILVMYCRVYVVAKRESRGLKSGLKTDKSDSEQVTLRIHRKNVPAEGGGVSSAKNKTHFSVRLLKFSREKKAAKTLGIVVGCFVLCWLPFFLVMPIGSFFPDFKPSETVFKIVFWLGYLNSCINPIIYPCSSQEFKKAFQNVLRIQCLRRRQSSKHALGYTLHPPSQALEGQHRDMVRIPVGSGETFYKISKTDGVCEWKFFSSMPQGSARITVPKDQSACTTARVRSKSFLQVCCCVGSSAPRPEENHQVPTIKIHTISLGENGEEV

[6] = molecular target: T1, 5-hydroxytryptamine receptor 1A; assay: Intrinsic activity assessed by stimulation of [35S]GTP-gamma-S binding in CHO cells expressing 5HT1A receptor; type: functional, cell-based
[7] = molecular target: Adrenergic receptor alpha-1 (Rattus norvegicus) (UniProt P15823+P23944+P43140); assay: Inhibition of [3H]prazosin binding to adrenergic alpha-1 receptor in rat cortical membrane at 100 nM; type: cell membranes

| Ki [1] [nM] | inhibition [2] [%] | Ki [3] [nM] | Emax [4] [%] | EC50 [6] [nM] | inhibition [7] [%] | SMILES | Ki [5] [nM] |
| --- | --- | --- | --- | --- | --- | --- | --- |
| 7.25 | 23 |  |  |  |  | Fc1ccc2[nH]cc(CCNCC3CN(Cc4ccccc4)c4ccccc4O3)c2c1 (centres undefined) |  |
| 11 |  | 16 | 100 | 155 |  | Fc1ccc2[nH]cc(CCNCC3CNc4ccccc4O3)c2c1 (centres undefined) | 70 |
| 103 |  | 11.7 | 56 | 181 |  | COc1ccc2c(c1)OC(CNCCc1c[nH]c3ccc(F)cc13)CN2 (centres undefined) | 44.5 |
| 12.8 |  | 22.7 | 100 | 196 |  | CCCN1CC(CNCCc2c[nH]c3ccccc23)Oc2ccccc21 (centres undefined) | 481 |
| 75.8 | 7 |  |  |  |  | c1ccc(N2CC(CNCCCc3c[nH]c4ccccc34)Oc3ccccc32)cc1 (centres undefined) |  |
| 76.1 |  | 109 | 64 | 1380 |  | c1ccc(CN2CC(CNCCCc3c[nH]c4ccccc34)Oc3ccccc32)cc1 (centres undefined) |  |
| 75.2 |  | 42.6 | 64 | 336 |  | CN1CC(CNCCc2c[nH]c3ccc(F)cc23)Oc2cc(Cl)ccc21 (centres undefined) | 607 |
| 8.46 |  | 12.4 | 80 | 167 | 26 | CN1CC(CNCCc2c[nH]c3ccc(F)cc23)Oc2ccccc21 (centres undefined) |  |
| 90.4 |  | 23.8 | 88 | 329 |  | CC(C)N1CC(CNCCCc2c[nH]c3ccccc23)Oc2ccccc21 (centres undefined) |  |
| 8.15 |  | 51.5 | 88 | 329 |  | CC(C)CN1CC(CNCCc2c[nH]c3ccc(F)cc23)Oc2ccccc21 (centres undefined) |  |
| 2.81 |  | 21.1 | 90 | 191 |  | CC(C)N1CC(CNCCc2c[nH]c3ccc(F)cc23)Oc2ccccc21 (centres undefined) |  |
| 6.91 |  | 89.8 | 96 | 93.5 | 26 | c1ccc2c(c1)NCC(CNCCc1c[nH]c3ccccc13)O2 (centres undefined) |  |
| 5.86 |  | 88.5 | 95 | 33.6 | 28 | CN1CC(CNCCc2c[nH]c3ccccc23)Oc2ccccc21 (centres undefined) |  |
| 30.2 | 23 |  |  |  |  | c1ccc(N2CC(CNCCc3c[nH]c4ccccc34)Oc3ccccc32)cc1 (centres undefined) |  |
| 9.31 |  | 3.13 | 66 | 52.2 |  | COc1cccc2c1OC(CNCCc1c[nH]c3ccc(F)cc13)CN2 (centres undefined) | 7.6 |

| SMILES | Ki [1] [nM] | inhibition [2] [%] | Ki [3] [nM] | Emax [4] [%] | EC50 [6] [nM] | inhibition [7] [%] | Ki [5] [nM] |
| --- | --- | --- | --- | --- | --- | --- | --- |
| C1=C(c2c[nH]c3ccccc23)CCN(CC2CNc3ccccc3O2)C1 (centres undefined) |  |  | 8.37 | 62 | 1130 |  | 16.6 |
| Fc1ccc2[nH]cc(CCNCC3CN(c4ccccc4)c4ccccc4O3)c2c1 (centres undefined) | 7.14 | 43 |  |  |  | 65 |  |
| COc1cccc2c1OC(CN1CC=C(c3c[nH]c4ccc(F)cc34)CC1)CN2 (centres undefined) |  |  | 6.94 | 35 | 386 |  | 14.5 |
| COc1cccc2c1OC(CN1CC=C(c3c[nH]c4ccc(F)cc34)CC1)CN2C (centres undefined) |  |  | 12.6 | 93 | 190 |  | 96.5 |
| CCN1CC(CNCCc2c[nH]c3ccc(F)cc23)Oc2ccccc21 (centres undefined) | 15.3 |  | 15.3 | 100 | 90 |  |  |
| CCCN1CC(CN2CC=C(c3c[nH]c4ccc(F)cc34)CC2)Oc2c(OC)cccc21 (centres undefined) |  |  | 22.6 | 92 | 135 |  | 505.5 |
| CCN1CC(CN2CC=C(c3c[nH]c4ccc(F)cc34)CC2)Oc2c(OC)cccc21 (centres undefined) |  |  | 13.2 | 54 | 418 |  | 229 |

— ChEMBL document CHEMBL1138978, “Studies toward the discovery of the next generation of antidepressants. Part 5: 3,4-Dihydro-2H-benzo[1,4]oxazine derivatives with dual 5-HT1A receptor and serotonin transporter affinity” (Bioorg Med Chem Lett, 2006)
